Results published in patent US9549911B2, “Ginger metabolites and uses thereof” (North Carolina A&T State University, priority 2012, dated 2017).
Like-named read-outs stand apart in the source and are kept apart here.

Columns and labels:
[1] = system: human lung cancer cells H-1299; experiment: MTT growth inhibition of human cancer and normal cells (Part 2); format: cell-based; settings: for activity against cancer cells (MTT): H-1299, 0 to 80 μM; for IC50: H-1299, 48 h, 0 to 80 μM
Description: (§1) Growth inhibition of human cancer and normal cells. Cell growth inhibition was determined by a MTT colorimetric assay. Human colon cancer cells HCT-116, human lung cancer cells H-1299, human colon fibroblast cells CCD-18Co, and human lung fibroblast cells IMR-90 were plated in 96-well microtiter plates with 3000 cells/well and allowed to attach for 24 h at 37° C. […] After the cells were cultured for 48 h, the medium was aspirated and cells were treated with 200 μL fresh medium containing 2.41 mmol/L MTT. […] The reading reflected the number of viable cells and was expressed as a percentage of viable cells in the control. Both HCT-116 and H-1299 cells were cultured in McCoy's 5A medium. CCD-18Co and IMR-90 cells were cultured in Eagle's modified essential medium (EMEM). All of the above media were supplemented with 10% fetal bovine serum, 1% penicillin/streptomycin, and 1% glutamine, and the cells were kept in a 37° C. incubator with 95% humidity and 5% CO2.

[2] = system: human colon cancer cells HCT-116; experiment: as above; format: cell-based; settings: for activity against cancer cells (MTT): HCT-116, 0 to 80 μM; for IC50: HCT-116, 48 h, 0 to 80 μM
Description: as §1

H-1299 cells [3] = experiment: TUNEL apoptosis assay (Part 2); format: cell-based, human; settings: H-1299, 20 or 40 μM, 24 hours
Description: (§2) HCT-116 and H1299 cells were seeded in 6-well plates at 1×10^5 cells/well and incubated at 37° C. in 5% CO2 incubator. After 24 hours, fresh media supplemented with DMSO (control), [6]-shogaol, M2, M6, or M13 metabolites (20 μM or 40 μM) were added to the wells. After 6 or 24 hours incubation at 37° C. in 5% CO2 incubator, cells were washed and pre-treated for 15 min at room temperature with a solution of 20 μg/ml proteinase K. Cells were then washed twice with phosphate buffer saline pH 7.4 (PBS) and fixed for 10 min at room temperature using 10% neutral formaldehyde solution. After 2 washes in ddH2O, cells were resuspended in 100 μL ddH2O and applied on silanized microscope slides. Slides were incubated overnight at 37° C., and washed twice with PBS. TUNEL assay was then carried out according to the manufacturer's protocol. Cells were observed under 400× power using a Zeiss microscope A1 (Thornwood, N.Y.). 10 fields per slide were evaluated, and TUNEL+ cells (with brown coloration in the nucleus) were expressed as a percentage of the total number of cells contained in a field.

HCT-116 cells [4] = experiment: TUNEL apoptosis assay (Part 2); format: cell-based, human; settings: HCT-116, 20 or 40 μM
Description: as §2

[5] = system: human lung fibroblast cells IMR-90; experiment: in vitro; format: cell-based
Description: as §1

[6] = system: human colon fibroblast cells CCD-18Co; experiment: in vitro; format: cell-based
Description: as §1

in vitro [7] = format: cell-based, human; settings: human; normal lung cells IMR-90, 48 h; read-out: IC50 (cytotoxicity, MTT)
Description: as §1

in vitro [8] = format: cell-based, human; settings: human; normal colon cells CCD-18Co, 48 h; read-out: IC50 (cytotoxicity, MTT)
Description: as §1

[9] = system: human colon cancer cells HCT-116; experiment: MTT toxicity in colon cancer and normal colon cells (Part 5); format: cell-based; settings: HCT-116, 24 hours
Description: (§3) Cell viability was determined by an MTT colorimetric assay. […] The reading reflected the number of viable cells and was expressed as a percentage of viable cells in the control. CCD-18Co cells were grown in EMEM. Both HCT-116 and HT-29 cells were cultured in McCoy's 5A medium. All of the above media were supplemented with 10% fetal bovine serum, 1% penicillin/streptomycin, and 1% glutamine, and the cells were kept in a 37° C. incubator with 95% humidity and 5% CO2.

[10] = system: human colon cancer cells HT-29; experiment: as above; format: cell-based; settings: HT-29 (p53 mutant), 24 hours
Description: as §3

HT-29 cells = experiment: Western blot analysis of apoptosis markers and p53 (Part 5); format: cell-based, human; settings: HT-29 (p53 mutant), 24 hours; M2, 6S 10, 20 or 40 μM; 8S, M2′, 10S, M2″ 20 μM
Description: (§4) Cell lysates were prepared in ice-cold RIPA lysis buffer [25 mM Tris-HCl (pH 7.6), 150 mM NaCl, 1% NP-40, 1% sodium deoxycholate, 0.1% SDS, Thermo Fisher Scientific] supplemented with a protease inhibitor cocktail (AEBSF, aprotinin, bestatin, E-64, leupeptin and pepstatin A in DMSO with EDTA, Thermo Fisher Scientific). Protein content was measured by a Pierce BCA Assay Kit (Thermo Fisher Scientific). Protein contents of cell lysates (30 μg protein/lane) were resolved by SDS-PAGE. Proteins were then electro-transferred onto PVDF membranes and blots were blocked for one hour at room temperature in 1×TBS with 1% Casein (Bio-Rad Laboratories, Berkeley, Calif.). Blots were then incubated overnight at 4° C. with the desired primary antibody diluted in TBS with 0.5% Tween-20. Blots were then washed with TBS-Tween 20 and probed for 1 hour with the appropriate secondary antibody (1:1000). Protein bands were visualized with chemiluminescence using West Femto maximum detection substrate (Thermo Fisher Scientific). To confirm equal protein loading in each lane, immunoblots were stripped and re-probed for β-actin. Protein fold-induction was calculated by normalizing the intensity of the band of interest to β-actin first, and then to DMSO control lanes.

HCT-116 cells [11] = experiment: as above; format: cell-based, human; settings: HCT-116 (p53 wild-type), 24 hours; M2, 6S 10, 20 or 40 μM; 8S, M2′, 10S, M2″ 20 μM
Description: as §4

[12] = system: HCT-116 human colon cancer cells; experiment: MTT growth inhibition of human cancer cells, 24 h (Part 1); format: cell-based; settings: Homo sapiens; HCT-116, 24 h, 0 to 80 μM
Description: (§5) The reading reflected the number of viable cells and was expressed as a percentage of viable cells in the control. Both HCT-116 and H-1299 cells were cultured in McCoy's 5A medium. All of the above media were supplemented with 10% fetal bovine serum, 1% penicillin/streptomycin, and 1% glutamine, and the cells were kept in a 37° C. incubator with 95% humidity and 5% CO2.

[13] = system: H-1299 human lung cancer cells; experiment: as above; format: cell-based; settings: Homo sapiens, NCI-H1299; H-1299, 24 h, 0 to 80 μM
Description: as §5

H-1299 cells [14] = experiment: TUNEL apoptosis assay (Part 1); format: cell-based, human; settings: 24 h
Description: (§6) HCT-116 and H-1299 cells were seeded in six-well plates at 1.0×10^5 cells/well and were incubated at 37° C. in a 5% CO2 incubator. After 24 h, fresh media supplemented with DMSO (control), [6]-shogaol (10 or 20 μM), M9 (40 or 80 μM), or M11 (40 or 80 μM) were added to the wells. After 24-h incubation, cells were washed and pretreated for 15 min at room temperature with a solution of 20 μg/ml proteinase K. Cells were then washed twice with PBS pH 7.4 and were fixed for 10 min at room temperature using 10% neutral formaldehyde solution. After two washes in distilled H2O, cells were resuspended in 100 μl of distilled H2O and were applied on silanized microscope slides. Slides were incubated overnight at 37° C. and were washed twice with PBS. Terminal deoxynucleotidyl transferase deoxyuridine triphosphate nick-end labeling (TUNEL) assay was then performed according to the manufacturer's protocol. Cells were observed under 400× power using a Zeiss A1 microscope (Carl Zeiss, Inc., Thornwood, N.Y.).
(§7) Ten fields per slide were evaluated, and TUNEL-positive cells (with brown coloration in the nucleus) were expressed as a percentage of the total number of cells contained in a field. Statistical Analysis. For simple comparisons between two groups, twotailed Student's t test was used. A p value of less than 0.05 was considered statistically significant in all the tests.

HCT-116 cells [15] = experiment: TUNEL apoptosis assay (Part 1); format: cell-based, human; settings: 24 h
Description: as §6, §7

[16] = Chemical inhibition of [6]-shogaol metabolism in liver microsomes; format: in vitro ADME, human; settings: inhibitor 500 μM, 20 min pre-incubation, [6]-shogaol 50 μM, 30 min
Description: Inhibitors ABT (500 μM) and 18β-GA (500 μM) or DMSO controls were pre-incubated with microsomes in experimental incubation mixture at 37° C. for 20 minutes before initiating the reaction by the addition of [6]-shogaol (50 μM). Reactions were terminated 30 minutes after substrate addition and incubation in a 37° C. water bath by equal volume of ice-cold acetonitrile with 2% acetic acid. The mixture was vortexed and underwent centrifugation at 13,000 g for 10 minutes. Aliquots of supernatant were stored at −20° C. until analysis.

CCCCCC(CC(O)CCc1ccc(O)c(OC)c1)SCC(N)C(=O)O (stereo not shown) [M1, 5-cysteinyl-M6]
activity against cancer cells (MTT) [1]: little to no activity
activity against cancer cells (MTT) [2]: little to no activity

CCCCCC(CC(O)CCc1ccc(O)c(OC)c1)SCC(NC(C)=O)C(=O)O (stereo not shown) [M4, 5-N-acetylcysteinyl-M6]
activity against cancer cells (MTT) [1]: little to no activity
activity against cancer cells (MTT) [2]: little to no activity

CCCCCC(CC(=O)CCc1ccc(O)c(OC)c1)SC[C@H](NC(=O)CC[C@H](N)C(=O)O)C(=O)NCC(=O)O (stereo partly shown) [M13, 5-glutathiol-[6]-shogaol]
induction of apoptosis (TUNEL) versus DMSO (H-1299 cells [3]): Apoptosis was observed
induction of apoptosis (TUNEL) versus DMSO (HCT-116 cells [4]; 6 hours): higher levels of apoptosis
induction of apoptosis (TUNEL) versus DMSO (HCT-116 cells [4]; 24 hours): Apoptosis was observed
IC50 [5]: 57.5 µM
IC50 [6]: 75.5 µM
IC50 [1]: 47.8 µM
IC50 [2]: 45.5 µM

CCCCCC(CC(O)CCc1ccc(O)c(OC)c1)SC (stereo not shown) [M12, 5-methylthio-1-(4′-Hydroxy-3′-methoxyphenyl)-decan-3-ol]
IC50 at 48 h (in vitro [7]): > 100 µM
IC50 at 48 h (in vitro [8]): > 100 µM
IC50 ([1]; Homo sapiens, NCI-H1299): 69.9 µM

CCCCCC(CC(=O)CCc1ccc(O)c(OC)c1)SC[C@H](NC(C)=O)C(=O)O (stereo partly shown) [M5, 5-N-acetylcysteinyl-[6]-shogaol]
IC50 [5]: > 100 µM
IC50 [6]: > 100 µM
IC50 [1]: 72.6 µM
IC50 [2]: 54.3 µM

CCCCCCCC(CC(=O)CCc1ccc(O)c(OC)c1)SC[C@H](N)C(=O)O (stereo partly shown) [M2′, 5-cysteinyl-[8]-shogaol]
IC50 [9]: 15.2 µM
IC50 [10]: 31.2 µM
p53 expression (Western blot) (HT-29 cells): increase in p53 accumulation
p53 expression (Western blot) (HCT-116 cells [11]): increase in p53 accumulation

CCCCCCCCCC(CC(=O)CCc1ccc(O)c(OC)c1)SC[C@H](N)C(=O)O (stereo partly shown) [M2″, 5-cysteinyl-[10]-shogaol]
IC50 [9]: 13.3 µM
IC50 [10]: 28.8 µM
p53 expression (Western blot) (HT-29 cells): increase in p53 accumulation
p53 expression (Western blot) (HCT-116 cells [11]): increase in p53 accumulation

CCCCCCCC(O)CCc1ccc(O)c(OC)c1 (stereo not shown) [M9, 1-(4′-hydroxy-3′-methoxyphenyl)-decan-3-ol]
IC50 [12]: 82.2 µM
IC50 [13]: 77.7 µM
apoptotic cells (TUNEL) (H-1299 cells [14]; H-1299, 40 μM): 7.4%
apoptotic cells (TUNEL) (H-1299 cells [14]; H-1299, 80 μM): 15.4%
apoptotic cells (TUNEL) (HCT-116 cells [15]; HCT-116, 40 μM): 9.6%
apoptotic cells (TUNEL) (HCT-116 cells [15]; HCT-116, 80 μM): 16.9%
IC50 at 48 h (in vitro [7]): > 100 µM
IC50 at 48 h (in vitro [8]): > 100 µM
IC50 ([1]; Homo sapiens, NCI-H1299): 82.5 µM
IC50 ([2]; Homo sapiens): 82.2 µM

CCCCCCCC(=O)CCc1ccc(O)c(O)c1 [M8, 1-(3′,4′-dihydroxyphenyl)-decan-3-one]
IC50 at 48 h (in vitro [7]): > 100 µM
IC50 at 48 h (in vitro [8]): > 100 µM
IC50 ([2]; Homo sapiens): 58.8 µM

Nn1nnc2ccccc21 [ABT, 1-Aminobenzotriazole]
effect on oxidative metabolism of [6]-shogaol [16]: abrogated
effect on reductive metabolism of [6]-shogaol [16]: did not inhibit reductive metabolism

CCCCCC(CC(=O)CCc1ccc(O)c(OC)c1)SC (stereo not shown) [M10, 5-methylthio-1-(4′-hydroxy-3′-methoxyphenyl)-decan-3-one]
IC50 at 48 h (in vitro [7]): > 100 µM
IC50 at 48 h (in vitro [8]): > 100 µM
IC50 ([1]; Homo sapiens, NCI-H1299): 60.6 µM
IC50 ([2]; Homo sapiens): 78.2 µM

CCCCCCCC(=O)CCc1ccc(O)c(OC)c1 [M11, 1-(4′-hydroxy-3′-methoxyphenyl)-decan-3-one]
IC50 [12]: 84 µM
IC50 [13]: 66.5 µM
apoptotic cells (TUNEL) (H-1299 cells [14]; H-1299, 40 μM): 8.3%
apoptotic cells (TUNEL) (H-1299 cells [14]; H-1299, 80 μM): 19.4%
apoptotic cells (TUNEL) (HCT-116 cells [15]; HCT-116, 40 μM): 12.9%
apoptotic cells (TUNEL) (HCT-116 cells [15]; HCT-116, 80 μM): 21.1%
IC50 at 48 h (in vitro [7]): > 100 µM
IC50 at 48 h (in vitro [8]): > 100 µM
IC50 ([1]; Homo sapiens, NCI-H1299): 66.5 µM
IC50 ([2]; Homo sapiens): 84 µM
